According to article PMC9321663, “The DevTox Germ Layer Reporter Platform: An Assay Adaptation of the Human Pluripotent Stem Cell Test” (Toxics, 2022):
Read-outs that look alike come from different tables or passages of the source.

How the values were obtained:
[1] = tested on: SOX17 (endoderm marker) in RUES2-GLR cells; assay: DevTox GLR-Endo assay: increase in percent SOX17-positive cells (AEID 3093, Sox17_up); type: cell-based, human; settings: for HIT−CALL: tcpl plot AEID3093, COFF 20.3; for Emax: Homo sapiens
Protocol: (§1) The total test chemical incubation period was 48 h.
(§2) (Supplementary Materials).

[2] = cited from earlier work; for Development Toxicant Classification: Table S2; for Classification: developmental toxicant classification (Teratogen / Non-Teratogen) of reference and training chemicals, ref DOI per chemical: 10.1093/toxsci/kft239, 10.1093/toxsci/kfaa014, 10.1177/026119290203000204, 10.1038/s41598-020-59542-x; for DT Class.: developmental toxicant classification
[3] = tested on: SOX17 (endoderm marker) in RUES2-GLR cells; assay: DevTox GLR-Endo assay: decrease in percent SOX17-positive cells (AEID 3094, Sox17_dn); settings: for hit call designation (in words): DevTox GLR-Endo prediction against developmental toxicant classification; for Hit Call: Table S2, SOX17-positive cells, cutoff 3*bmad; for DevTox ACC: Table S2, percent SOX17-positive cells; for HIT−CALL: tcpl plot AEID3094, COFF 20.3; for ga (winning model): tcpl plot AEID3094, gain parameter of winning curve fit (log concentration, µM axis); for ga (winning model) / tp (winning model): hit calls only; for MAX_MEAN: tcpl plot AEID3094, maximum mean response; for tp (winning model): tcpl plot AEID3094, top of winning curve fit (Hill or gain-loss); for DevTox-GLR Endo ACC: activity concentration at cutoff, SOX17-positive cells; for effect on SOX17-positive cells (in words): 48 h exposure during directed endoderm differentiation
Outline: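 Readouts are loss of SOX17-positive fraction and reduced cell number in endoderm-differentiating RUES2-GLR cells after 48 h of chemical exposure. Controls: undifferentiated and differentiated cells, 0.2% DMSO, and 1 µM SB431542; at least four biological replicates.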

[4] = tested on: BRA (mesoderm marker) in RUES2-GLR cells; assay: DevTox GLR-Endo assay: increase in percent BRA-positive cells (AEID 3096, Bra_up); type: cell-based, human; settings: for HIT−CALL: tcpl plot AEID3096, COFF 0.774; for MAX_MEAN: tcpl plot AEID3096, maximum mean response; for MAX_MED: tcpl plot AEID3096, maximum median response
Protocol: as §1, §2

[5] = tested on: SOX2 (ectoderm and pluripotency marker) in RUES2-GLR cells; assay: DevTox GLR-Endo assay: increase in percent SOX2-positive cells (AEID 3095, Sox2_up); settings: for MAX_MEAN: tcpl plot AEID3095, maximum mean response; for MAX_MED: tcpl plot AEID3095, maximum median response;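 as to all read-outs here: cells exposed to test chemicals for 48 h in total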
Protocol: RUES2-GLR cells were seeded 24 h prior to differentiation initiation into vitronectin-coated 384-well CellCarrier Ultra plates (10.6 mm^2/well) (Perkin Elmer, Waltham, MA, USA). Vitronectin (0.5 µg/cm^2)-coated plates were prepared and stored at 4 °C, wrapped in parafilm, for less than seven days and incubated at room temperature for one hour prior to cell seeding. […] Cells were dispensed into 20 µL coating solution using a Certus FLEX Micro Dispenser (Fritz Gyger, Gwatt, Switzerland) with a 0.45 µm valve to a final volume of 100 µL and density of 2.8 × 10^3 cells per well.
Following a 24 h post-seeding incubation period (Time = 0 h) (Figure 3A), directed endoderm differentiation was initiated with the PSC Definitive Endoderm Induction kit (Gibco, Waltham, MA, USA). […] A target dilution series (0.002–200 µM) was generated by dispensing variable nanoliter volumes of test chemical and backfilling with a complementary volume of DMSO using Echo Cherry Pick software (v.1.6.2). Wells were backfilled with 50 µL of induction medium using a Certus FLEX Micro Dispenser with 0.45 µm valves. Test compound treatment plates were mixed on a Multi-Microplate Genie mixer at 700 rpm for 10 min and subsequently incubated for two hours in a humidified atmosphere at 37 °C with 5% CO2. Each chemical treatment (0 h–Medium A; 24 h–Medium B) were prepared the day of treatment. At 0 h, cell culture medium was aspirated from the assay plate at a rate of 1 µL/s and 40 µL of Medium A ± test chemical applied using a CyBio FeliX automated liquid handler (Analytik Jena, Jena, Germany). At 24 h, conditioned cell culture medium was aspirated and 40 µL of Medium B ± test chemical was applied. At 48 h, cells were prepared for high-content image acquisition by fixation and nuclear staining. The total test chemical incubation period was 48 h. For fixation, a 4% paraformaldehyde (PFA) solution was achieved by adding 40 µL of 8% PFA directly to cell culture medium using a CyBio FeliX liquid handler. […] Following an additional 30 min incubation period at room temperature, staining solution was aspirated, 50 µL of DPBS was added, and plate sealed with MicroAmp Optical Adhesive Film (Applied Biosystems, Waltham, MA, USA).
Images were acquired within 12 h post-fixation using an Opera Phenix High-Content Screening System (Perkin Elmer, Waltham, MA, USA). […] Cell identification and mean biomarker fluorescent intensities were calculated using Harmony image analysis software (Perkin Elmer, Waltham, MA, USA). Cell nuclei were identified using the object classifying algorithm C of the software with border objects excluded using the “Remove Border Objects” feature. Mean cell biomarker intensity statistics were gathered from each object and exported for further analysis using a custom script in Python version 3.7.4 [61] […] For each plate, pluripotent-negative control wells were used to establish baseline intensity values and a cutoff threshold for determining SOX17 and BRA biomarker-positive cells. Endoderm differentiated positive control wells were used to establish baseline intensity values and a cutoff threshold for SOX2-positive cells. Cells with a mean intensity five times the baseline median absolute deviation (5*bmad) above the median cell intensity for plate-based control population technical replicates were considered positive. Well-based cell counts, reflected by the sum of total counted objects from all fields, were used to calculate the percent responders for each respective biomarker and evaluate cytotoxicity. Well-level results were exported for data modeling in the ToxCast Pipeline.
The ToxCast Pipeline R package (tcpl v.2.0.2) was used to normalize, fit, and qualify concentration-response screening data [63].

RUES2-GLR cells = assay: in vitro; settings: for Emax: Homo sapiens, read-out: Cell Count % Max Inhibition
[6] = tested on: o/c ratio in H9 embryonic stem cells; settings: Teratogen Index, o/c ratio; cited from earlier work
[7] = tested on: SOX17 in H9 human ESC line; settings: SOX17 half-maximal inhibition concentration; read-out: hPST IC50; cited from earlier work
H9 human ESC line = settings: cited from earlier work
[8] = DevTox GLR-Endo assay: decrease in total cell count, cytotoxicity (AEID 3098, CellCount_dn); settings: human, RUES2-GLR cells under directed endoderm differentiation
[9] = tcpl plot AEID3093, maximum mean response
[10] = tcpl plot AEID3093, maximum median response
[11] = chemicals common with quickPredict
[12] = tcpl plot AEID3093, maximum mean response, read-out: MAX_MEAN
[13] = tcpl plot AEID3093, maximum median response, read-out: MAX_MED
[14] = Homo sapiens, 48 h, read-out: DevTox-GLR Endo AC50 (µM), SOX17 half-maximal activity concentration, 48 h exposure
[15] = Homo sapiens, read-out: DevTox % Max Inhibition
[16] = Homo sapiens, read-out: MAX_MEAN
[17] = Homo sapiens, read-out: MAX_MED
[18] = Homo sapiens, read-out: ga (winning model), tcpl plot AEID3094, gain parameter of winning curve fit (log concentration, µM axis), hit calls only (converted)
[19] = Homo sapiens, read-out: tp (winning model)
[20] = cytotoxicity half-maximal concentration

C[C@@H]1C[C@H]2[C@@H]3CCC4=CC(=O)C=C[C@]4(C)[C@@]3(F)[C@@H](O)C[C@]2(C)[C@@]1(O)C(=O)CO [Dexamethasone]
HIT−CALL [1]: 0
MAX_MEAN [1, 9]: −0.0942 Percent Activity
MAX_MED [1, 10]: 0.457 Percent Activity
Development Toxicant Classification [2]: Positive
Classification [2]: Teratogen
DT Class. [2, 11]: Pos
hit call designation (in words) [3]: borderline calls
Hit Call [3]: Negative
DevTox ACC ([3]; 48 h exposure): >200 µM
HIT−CALL [3]: 1
ga (winning model) [3]: −6.88
MAX_MEAN [3]: 20.7 Percent Activity
tp (winning model) [3]: 41.8
HIT−CALL [4]: 0
MAX_MEAN [4]: 0.923 Percent Activity
MAX_MED [4]: 0.979 Percent Activity
MAX_MEAN [5]: 0.622 Percent Activity
MAX_MED [5]: 0.482 Percent Activity
Cell Count ACC (RUES2-GLR cells): 13.83 µM
DevTox-GLR Endo CC (RUES2-GLR cells): 13.83 µM
effect on cell count (in words) (RUES2-GLR cells): significant cell loss that did not impact SOX17-positive populations
quickPredict TI [6]: 37.7 µM

NC(=O)N1c2ccccc2C=Cc2ccccc21 [Carbamazepine]
Emax [1, 12]: 12.3%
Emax [1, 13]: 12.1%
HIT−CALL [1]: 0
Development Toxicant Classification [2]: Positive
Classification [2]: Teratogen
DT Class. ([2]; chemicals common with hPST): Pos
DT Class. [2, 11]: Pos
AC50 [3, 14]: 103 µM
Emax [3, 15]: 52.2%
Emax [3, 16]: 52.1%
Emax [3, 17]: 52.2%
AC50 [3, 18]: 102 µM
Emax [3, 19]: 65.3%
Hit Call [3]: Positive
DevTox ACC ([3]; 48 h exposure): 64.024 µM
DevTox-GLR Endo ACC ([3]; 48 h exposure): 64.02 µM
HIT−CALL [3]: 1
IC50 [7]: 0.08 µM
HIT−CALL [4]: 1
MAX_MEAN [4]: 1.14 Percent Activity
MAX_MED [4]: 1.04 Percent Activity
MAX_MEAN [5]: 0.534 Percent Activity
MAX_MED [5]: 0.576 Percent Activity
hPST TC50 (H9 human ESC line; [20]): 0.19 µM
hPST TC50 (H9 human ESC line; hPST cytotoxicity): 0.19 µM
CC50 at 48 h [8]: 137 µM
Emax (RUES2-GLR cells): 39.1%
Cell Count ACC (RUES2-GLR cells; human, 48 h): 57.7753 µM
DevTox-GLR Endo CC (RUES2-GLR cells; human, 48 h): 57.78 µM
quickPredict TI [6]: 2.29 µM

CN(C)CCOC(c1ccccc1)c1ccccc1 [Diphenhydramine]
Emax [1, 12]: -0.267%
Emax [1, 13]: -1.82%
HIT−CALL [1]: 0
AC50 [3, 18]: 61.7 µM
Emax [3, 19]: 117%
Hit Call [3]: Positive
HIT−CALL [3]: 1
HIT−CALL [4]: 1
MAX_MEAN [4]: 1.61 Percent Activity
MAX_MED [4]: 1.58 Percent Activity
AC50 ([5]; Homo sapiens, read-out: ga (winning model)): 631 µM
Emax [5, 19]: 2.12%
MAX_MEAN [5]: 2.92 Percent Activity
MAX_MED [5]: 1.57 Percent Activity
Emax (RUES2-GLR cells): 78.9%
quickPredict TI [6]: 0.588 µM

O=C1CCC(N2C(=O)c3ccccc3C2=O)C(=O)N1 (centres unmarked) [Thalidomide]
Emax [1, 12]: 4.62%
Emax [1, 13]: 3.35%
HIT−CALL [1]: 0
Development Toxicant Classification [2]: Positive
Classification [2]: Teratogen
DT Class. ([2]; chemicals common with hPST): Pos
DT Class. [2, 11]: Pos
Developmental Toxicant Classification ([2]; reference chemicals): Positive
effect on SOX17-positive cells (in words) [3]: significant reductions in the SOX17-positive sub-population
effect on SOX17-positive cells (in words) ([3]; listed as thalidomide): concentration-dependent loss of SOX17-positive cells
IC50 ([3]; Homo sapiens, 48 h): 1.71 µM
AC50 [3, 14]: 1.64 µM
Emax [3, 15]: 79.1%
Emax [3, 16]: 78%
Emax [3, 17]: 79.1%
AC50 [3, 18]: 1.64 µM
Emax [3, 19]: 81.4%
Hit Call [3]: Positive
DevTox ACC ([3]; 48 h exposure): 0.2523 µM
DevTox-GLR Endo ACC ([3]; 48 h exposure): 0.25 µM
% Max Inhibition ([3]; maximum inhibition of SOX17-positive cells, reference chemical testing, 48 h exposure): 58%
HIT−CALL [3]: 1
IC50 [7]: 0.5 µM
HIT−CALL [4]: 0
MAX_MEAN [4]: 0.925 Percent Activity
MAX_MED [4]: 0.968 Percent Activity
MAX_MEAN [5]: 0.64 Percent Activity
MAX_MED [5]: 0.473 Percent Activity
hPST TC50 (H9 human ESC line; [20]): >200 µM
hPST TC50 (H9 human ESC line; hPST cytotoxicity): > 200 µM
CC50 at 48 h [8]: > 200 µM
effect on cell counts (in words) (RUES2-GLR cells): cell counts remained constant
Emax (RUES2-GLR cells): 19.5%
Cell Count ACC (RUES2-GLR cells; human, 48 h): >200 µM
quickPredict TI [6]: 1.27 µM

Cc1cn([C@H]2C=C[C@@H](CO)O2)c(=O)[nH]c1=O [Stavudine]
Emax [1, 12]: 8.07%
Emax [1, 13]: 10.6%
HIT−CALL [1]: 0
Development Toxicant Classification [2]: Positive
Classification [2]: Teratogen
DT Class. [2, 11]: Pos
hit call designation (in words) [3]: false negative
Emax [3, 15]: 11.4%
Emax [3, 16]: 13.5%
Emax [3, 17]: 11.4%
Emax ([3]; Homo sapiens, read-out: maximum observed effect level class (% max inhibition)): 0 to 20%
Hit Call [3]: Negative
DevTox ACC ([3]; 48 h exposure): >200 µM
HIT−CALL [3]: 0
HIT−CALL [4]: 1
MAX_MEAN [4]: 1.06 Percent Activity
MAX_MED [4]: 1.06 Percent Activity
MAX_MEAN [5]: 1.54 Percent Activity
MAX_MED [5]: 0.512 Percent Activity
effect on cell count (in words) (RUES2-GLR cells): significant decreases in cell count
Emax (RUES2-GLR cells): 23.9%
Cell Count ACC (RUES2-GLR cells; human, 48 h): 90.2805 µM
DevTox-GLR Endo CC (RUES2-GLR cells; human, 48 h): 90.28 µM
effect on cell count (in words) (RUES2-GLR cells; human, 48 h): significant cell loss that did not impact SOX17-positive populations
quickPredict TI [6]: 32.5 µM

CO[C@H]1/C=C/O[C@@]2(C)Oc3c(C)c(O)c4c(O)c(c(/C=N/N5CCN(C)CC5)c(O)c4c3C2=O)NC(=O)/C(C)=C\C=C\[C@H](C)[C@H](O)[C@@H](C)[C@@H](O)[C@@H](C)[C@H](OC(C)=O)[C@@H]1C [Rifampicin]
Emax [1, 12]: 7.3%
Emax [1, 13]: 7.36%
HIT−CALL [1]: 0
Development Toxicant Classification [2]: Positive
Classification [2]: Teratogen
DT Class. [2, 11]: Pos
Emax [3, 15]: 101%
Emax [3, 16]: 102%
Emax [3, 17]: 101%
AC50 [3, 18]: 67.6 µM
Emax [3, 19]: 108%
Hit Call [3]: Positive
DevTox ACC ([3]; 48 h exposure): 37.8542 µM
DevTox-GLR Endo ACC ([3]; 48 h exposure): 37.85 µM
HIT−CALL [3]: 1
MAX_MEAN [5]: 0.548 Percent Activity
MAX_MED [5]: 0.542 Percent Activity
Emax (RUES2-GLR cells): 92.4%
Cell Count ACC (RUES2-GLR cells; human, 48 h): 18.1066 µM
DevTox-GLR Endo CC (RUES2-GLR cells; human, 48 h): 18.11 µM
quickPredict TI [6]: 2.46 µM

CCCCC(CC)COC(=O)c1ccccc1C(=O)O (centres unmarked) [MEHP]
HIT−CALL [1]: 0
MAX_MEAN [1, 9]: 6.64 Percent Activity
MAX_MED [1, 10]: 12.4 Percent Activity
Hit Call [3]: Positive
DevTox % Max Inhibition ([3]; Table S2, percent SOX17-positive cells relative to DMSO): 67.6802%
DevTox ACC ([3]; 48 h exposure): 76.3285 µM
DevTox-GLR Endo ACC ([3]; 48 h exposure): 76.33 µM
HIT−CALL [3]: 1
ga (winning model) [3]: 2.11
MAX_MEAN [3]: 65.4 Percent Activity
MAX_MED ([3]; tcpl plot AEID3094, maximum median response): 67.7 Percent Activity
tp (winning model) [3]: 89.3
HIT−CALL [4]: 0
MAX_MEAN [4]: 1.95 Percent Activity
MAX_MED [4]: 1.69 Percent Activity
MAX_MEAN [5]: 1.85 Percent Activity
MAX_MED [5]: 1.77 Percent Activity
Cell Count ACC (RUES2-GLR cells): 61.5464 µM
DevTox-GLR Endo CC (RUES2-GLR cells): 61.55 µM
Cell Count % Max Inhibition (RUES2-GLR cells; Table S2, cell count relative to DMSO): 76.1511%
quickPredict TI [6]: 167 µM
